Laboratory results taken from ChEMBL document CHEMBL1687702, “Discovery of New Human A(2A) Adenosine Receptor Agonists: Design, Synthesis, and Binding Mode of Truncated 2-Hexynyl-4'-thioadenosine” (ACS Med Chem Lett, 2010).

Assays:
[1] = target: T1, Adenosine receptor A1 (Homo sapiens) (UniProt P30542); experiment: Displacement of [3H]CCPA from human adenosine A1 receptor expressed in CHO cells at 10 uM; assay type: cell-based
T1 sequence (whole entry): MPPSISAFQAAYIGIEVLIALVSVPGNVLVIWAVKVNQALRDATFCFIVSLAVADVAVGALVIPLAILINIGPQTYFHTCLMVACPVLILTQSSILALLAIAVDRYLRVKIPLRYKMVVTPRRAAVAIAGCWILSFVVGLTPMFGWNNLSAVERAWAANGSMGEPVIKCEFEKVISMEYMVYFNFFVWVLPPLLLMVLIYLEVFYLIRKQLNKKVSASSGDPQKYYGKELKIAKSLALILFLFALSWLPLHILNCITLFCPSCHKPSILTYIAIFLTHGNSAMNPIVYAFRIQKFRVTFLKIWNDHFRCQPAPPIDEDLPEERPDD

Adenosine receptor A3 = target: T2, Adenosine receptor A3 (Homo sapiens, UniProt P0DMS8); experiment: Displacement of [125I]I-AB-MECA from human adenosine A3 receptor expressed in CHO cells […]; assay type: cell-based
T2 sequence (P0DMS8 whole entry): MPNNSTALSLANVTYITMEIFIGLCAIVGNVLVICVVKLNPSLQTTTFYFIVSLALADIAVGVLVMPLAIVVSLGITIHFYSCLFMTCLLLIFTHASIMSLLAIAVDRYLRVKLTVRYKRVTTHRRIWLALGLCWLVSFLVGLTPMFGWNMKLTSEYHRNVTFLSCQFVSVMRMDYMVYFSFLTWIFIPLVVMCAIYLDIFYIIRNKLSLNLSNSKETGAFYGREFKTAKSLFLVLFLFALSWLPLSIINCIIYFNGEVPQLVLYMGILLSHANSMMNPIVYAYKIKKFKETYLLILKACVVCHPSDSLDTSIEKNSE

Adenosine receptor A2a [2] = target: T3, Adenosine receptor A2a (Homo sapiens, UniProt P29274); experiment: Displacement of [3H]CGS21680 from human adenosine A2A receptor in HEK293 cells at 10 uM; assay type: cell-based
Adenosine receptor A2a [3] = target: T3, Adenosine receptor A2a; experiment: Displacement of [3H]CGS21680 from human adenosine A2A receptor in HEK293 cells; assay type: cell-based
[4] = target: T4, Adenosine receptor A3 (Homo sapiens) (UniProt P0DMS8); experiment: Antagonistic activity at human adenosine A3 receptor expressed in CHO cells assessed as inhibition of Cl-IB-MECA mediated cyclic AMP production by Schild assay; assay type: functional, cell-based
T4 sequence (whole entry): T2 sequence (P0DMS8 whole entry)

Adenosine receptor A2a [5] = target: T3, Adenosine receptor A2a; experiment: Agonist activity at human adenosine A2A receptor expressed in CHO cells by cyclic AMP functional assay; assay type: cell-based
Adenosine receptor A2b = target: T5, Adenosine receptor A2b (Homo sapiens, UniProt P29275); experiment: Agonist activity at human adenosine A2B receptor expressed in CHO cells by cyclic AMP functional assay; assay type: cell-based
T5 sequence (P29275 whole entry): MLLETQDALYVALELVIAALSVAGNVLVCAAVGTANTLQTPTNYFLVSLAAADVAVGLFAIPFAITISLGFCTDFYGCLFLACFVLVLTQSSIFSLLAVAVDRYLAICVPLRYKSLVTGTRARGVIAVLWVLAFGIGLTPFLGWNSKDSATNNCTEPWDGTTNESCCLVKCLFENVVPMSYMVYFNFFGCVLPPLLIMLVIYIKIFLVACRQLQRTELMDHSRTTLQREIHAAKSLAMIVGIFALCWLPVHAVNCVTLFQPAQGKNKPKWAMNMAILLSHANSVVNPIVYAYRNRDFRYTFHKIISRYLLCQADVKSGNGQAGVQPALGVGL

T3 sequence (P29274 whole entry): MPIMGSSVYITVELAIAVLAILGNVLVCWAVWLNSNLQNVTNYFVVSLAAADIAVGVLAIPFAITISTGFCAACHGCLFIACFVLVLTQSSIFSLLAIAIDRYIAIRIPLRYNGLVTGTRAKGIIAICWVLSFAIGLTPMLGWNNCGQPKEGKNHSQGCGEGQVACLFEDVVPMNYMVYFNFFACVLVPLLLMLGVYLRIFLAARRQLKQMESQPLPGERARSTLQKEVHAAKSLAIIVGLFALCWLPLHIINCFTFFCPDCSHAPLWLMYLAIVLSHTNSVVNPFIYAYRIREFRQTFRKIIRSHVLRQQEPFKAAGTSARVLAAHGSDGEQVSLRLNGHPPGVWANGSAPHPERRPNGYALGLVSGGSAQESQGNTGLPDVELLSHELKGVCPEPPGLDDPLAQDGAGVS

inhibition [1] [%] | Ki (Adenosine receptor A3) [nM] | inhibition (Adenosine receptor A2a [2]) [%] | Ki (Adenosine receptor A2a [3]) [nM] | Kb [4] [nM] | EC50 (Adenosine receptor A2a [5]) [nM] | EC50 (Adenosine receptor A2b) [nM] | Compound
3.7 | 259 | 22.8 |  |  |  |  | CCCC/C=C/c1nc2c(N)ncnc2n1[C@@H]1SC[C@@H](O)[C@H]1O
16.2 | 13.2 | 95.9 | 72 |  |  |  | CCCC/C=C/c1nc(N)c2ncn([C@@H]3SC[C@@H](O)[C@H]3O)c2n1
38.9 |  | 97.2 |  | 1.69 | 12 | 10000 | CCCCC#Cc1nc(N)c2ncn([C@@H]3SC[C@@H](O)[C@H]3O)c2n1
49.3 | 20 | 46.5 |  |  |  |  | CCCCC#Cc1nc2c(N)ncnc2n1[C@@H]1SC[C@@H](O)[C@H]1O
